Laboratory results taken from patent publication US4061626A, “Somatostatin analogs and intermediates thereto” (Eli Lilly and Company, priority 1976, dated 1977).
Where a SMILES comes first, the peptide text is derived from it.

Legend:
pancreatic secretion = experiment: inhibition of secretin-induced pancreatic secretion in dogs with pancreatic and total gastric fistula; format: in vivo; details: 3 μg/kg-hr for one hour, secretin 0.5 unit/kg-hr.
Procedure: D-Ala^2,D-Lys^4 -somatostatin was also shown to inhibit pancreatic secretion. In three dogs having both pancreatic and total gastric fistula, secretion from the pancreas was induced by infusion of secretin at 0.5 unit/kg-hr. and gastric HCl by infusion of tetragastrin at 0.5 μg/kg-hr. After a steady response was established, administration of the test compound was begun. One of the dogs was retained as control, and, of the remaining two dogs, one received somatostatin and the other D-Ala^2,D-Lys^4 -somatostatin, each for one hour at 3 μg/kg-hr.Peak inhibitory effects expressed as percent changes over control are as follows: […]

growth hormone secretion = experiment: release of growth hormone in sodium pentobarbital-stimulated rats; format: in vivo, Spraque-Dawley rats
Procedure: D-Lys^4 -somatostatin and D-Ala^2,D-Lys^4 -somatostatin also were tested for their activity with respect to the release of growth hormone. The procedure which was employed is carried out using mature male Spraque-Dawley rats (Laboratory Supply Company, Indianapolis, Indiana). The test is a modification of the method of P. Brazeau, W. Vale, and R. Guilleman, Endocrinology, 94 184 (1974). In this assay, two sets, one comprising five groups of eight rats each and the other comprising three groups of eight rats each were employed. First, sodium pentobarbital was administered to all of the rats of a particular set to stimulate growth hormone secretion. In the set comprising five groups of eight rats, one group is the control group and received only saline. Two of the groups received somatostatin, one at 2 μg./rat, subcutaneously, and the other at 50 μg./rat, subcutaneously. The other two groups received D-Ala^2,D-Lys^4 -somatostatin, one at 2 μg./rat, subcutaneously and the other at 50 μg./rat, subcutaneously. The degree of inhibition of serum growth hormone concentration then was determined with respect to the control group, and the relative activities of D-Ala^2,D-Lys^4 -somatostatin and somatostatin itself were compared.
The other set of three groups of eight rats each was treated in the same manner as above, with the exception the D-Lys^4 -somatostatin was used in place of D-Ala^2,D-Lys^4 -somatostatin, and the test was carried out only at a 50 μg./rat dose level. The D-Lys^4 -somatostatin stimulated growth hormone secretion by about 8 percent over control, while somatostatin in this set inhibited growth hormone secretion by 70 percent over control.

gastric HCl secretion = experiment: in vivo inhibition of gastric acid secretion in dogs with chronic gastric fistula and Heidenhain pouch; details: infused at 3 μg/kg-hr. for one hour, secretion induced by C-terminal tetrapeptide of gastrin 0.5 μg/kg-hr
Procedure: D-Lys^4 -somatostatin and D-Ala^2,D-Lys^4 -somatostatin also were tested in dogs for their in vivo inhibition of gastric acid secretion. In dogs with chronic gastric fistula and Heidenhain pouch, gastric HCl secretion was induced by infusion of the C-terminal tetrapeptide of gastrin at 0.5 μg/kg-hr. One dog served as control, receiving only the tetrapeptide. Another dog received the tetrapeptide and somatostatin while the test compound was administered to other dogs in place of somatostatin. After one hour of steady state secretion of HCl, somatostatin or the test compound was infused at 3 μg/kg-hr. for one hour. Collection of gastric acid samples was continued for an additional 1.5 hours at 15 minute intervals.

glucagon secretion = experiment: in vivo inhibition of glucagon secretion upon stimulation with insulin; design: species or system mongrel dogs; details: dogs; insulin 0.3 units/kg. i.v.; infusion 0.07-0.13 μg/kg/min. (D-Lys^4 at 0.150, D-Ala^2,D-Lys^4 at 0.114 μg/kg/min.)
Procedure: D-Lys^4 -somatostatin and D-Ala^2,D-Lys^4 -somatostatin also were evaluated for in vivo activity in inhibiting glucagon secretion upon stimulation with insulin. Normal mongrel dogs of either sex were fasted overnight. After control blood samples had been obtained, an intravenous infusion of saline, somatostatin, D-Lys^4 -somatostatin, or D-Ala^2,D-Lys^4 -somatostatin was commenced. After 15 minutes, insulin, 0.3 units/kg., was injected intravenously. The infusion of saline, somatostatin, or the test compound was continued for two hours, and blood samples were obtained at various intervals throughout the test. The total dose of the somatostatin or test compound ranged from 120-260 μg./dog (0.07-0.13 μg/kg/min.). Administration of insulin produced a reduction in the blood glucose concentration and an increase in serum glucagon concentration.

[1] = test system: glucagon and insulin secretion; experiment: in vivo inhibition of glucagon and insulin secretion upon stimulation with L-alanine; design: species or system mongrel dogs; details: dogs
Procedure: D-Ala^2,D-Lys^4 -somatostatin was tested for its in vivo activity in inhibiting glucagon and insulin secretion upon stimulation with L-alanine. Normal mongrel dogs of either sex were fasted overnight. Control blood samples were obtained, and then an intravenous infusion of saline, somatostatin, or D-Ala^2,D-Lys^4 -somatostatin was started. After 30 minutes, L-alanine additionally was administered intravenously for a period of 15 minutes. The infusion of saline, somatostatin, or D-Ala^2,D-Lys^4 -somatostatin was continued for 15 minutes after completion of the alanine infusion. The total dose of somatostatin or D-Ala^2,D-Lys^4 -somatostatin which was infused is 200-500 μg./dog (0.20-0.30 μg/kg./minute), and the total dose of L-alanine infused was 1 mmol/kg.

[2] = intravenous infusion 0.20-0.30 μg/kg./minute (D-Ala^2,D-Lys^4 -somatostatin at 0.253 μg/kg/min.), L-alanine 1 mmol/kg

Compound	Pancreatic Secretion HCO3^-, peak inhibitory effect as percent change over control (pancreatic secretion) [%]	Pancreatic Secretion Protein, peak inhibitory effect as percent change over control (pancreatic secretion) [%]	Pancreatic Secretion Volume, peak inhibitory effect as percent change over control (pancreatic secretion) [%]	stimulation of growth hormone secretion over control (growth hormone secretion; 2 μg./rat, subcutaneously, set of five groups) [%]	stimulation of growth hormone secretion over control (growth hormone secretion; 50 μg./rat, subcutaneously, set of five groups) [%]	inhibition of gastric acid secretion relative to the control (gastric HCl secretion) [%]	effect on the increase in serum glucagon concentration produced by insulin administration (glucagon secretion)	effect on basal serum insulin concentration ([1]; intravenous infusion 0.20-0.30 μg/kg./minute (D-Ala^2,D-Lys^4 -somatostatin at 0.253 μg/kg/min.))	effect on the rise in serum glucagon concentration during infusion of L-alanine [1, 2]	effect on the rise in serum insulin concentration during infusion of L-alanine [1, 2]	effect on basal secretion of glucagon ([1]; intravenous infusion at 0.253 μg/kg/min.)	stimulation of growth hormone secretion over control (growth hormone secretion; 50 μg./rat, set of three groups)
C[C@H](N)C(=O)N[C@H](C)C(=O)N[C@H]1CSSC[C@@H](C(=O)O)NC(=O)[C@H](CO)NC(=O)[C@H]([C@@H](C)O)NC(=O)[C@H](Cc2ccccc2)NC(=O)[C@H]([C@@H](C)O)NC(=O)[C@H](CCCCN)NC(=O)[C@H](Cc2c[nH]c3ccccc23)NC(=O)[C@H](Cc2ccccc2)NC(=O)[C@H](Cc2ccccc2)NC(=O)[C@H](CC(N)=O)NC(=O)[C@@H](CCCCN)NC1=O [D-Ala^2,D-Lys^4 -somatostatin, D-Ala^2, D-Lys^4 -somatostatin] (HELM PEPTIDE1{A.[dA].C.[dK].N.F.F.W.K.T.F.T.S.C}$PEPTIDE1,PEPTIDE1,3:R3-14:R3$$$V2.0)	-68	-55.4	-61	114	~200	50.9	neither inhibited	slight decrease	partial inhibition	partial inhibition	slight decrease	
C[C@H](N)C(=O)NCC(=O)N[C@H]1CSSC[C@@H](C(=O)O)NC(=O)[C@H](CO)NC(=O)[C@H]([C@@H](C)O)NC(=O)[C@H](Cc2ccccc2)NC(=O)[C@H]([C@@H](C)O)NC(=O)[C@H](CCCCN)NC(=O)[C@H](Cc2c[nH]c3ccccc23)NC(=O)[C@H](Cc2ccccc2)NC(=O)[C@H](Cc2ccccc2)NC(=O)[C@H](CC(N)=O)NC(=O)[C@@H](CCCCN)NC1=O [D-Lys^4 -somatostatin]						87.3	neither inhibited					about 8%
